From patent publication US12331054B2, “Perk inhibiting imidazolopyrazine compounds” (HiberCell, Inc., priority 2019, dated 2025)

Assays:
[1] = biological target: Recombinant human EIF2AK3 (PERK) catalytic domain (amino acids 536-1116) (Homo sapiens (Human), UniProt Q9NZJ5); assay: PERK In Vitro Activity Assay (isolated), TR-FRET kinase assay; conditions: isolated PERK enzyme, 1.5 μM ATP, read-out: Biochemical IC50
From the text: PERK In Vitro Activity Assay (isolated):
In vitro Inhibition of PERK Enzyme Activity (isolated) Recombinant human EIF2AK2 (PKR) catalytic domain (amino acids 252-551), EIF2AK3 (PERK) catalytic domain (amino acids 536-1116), GFP-eIF2a substrate, and Terbium-labelled phospho-eIF2a antibody is obtained (Invitrogen, Carlsbad, CA).
Express and purify HIS-SUMO-GCN2 catalytic domain (amino acids 584-1019) from E. coli. Perform TR-FRET kinase assays in the absence or presence of inhibitors in a reaction buffer consisting of 50 mM HEPES, pH 7.5, 10 mM MgCb, 1.0 mM EGTA, and 0.01% Brij-35, and 100-200 nM GFP-eIF2a substrate. […] Add test compound, initiate the reaction by addition of enzyme, and incubate at room temperature for 45 minutes. Stop the reaction by addition of EDTA to a final concentration of 10 mM, add Terbium-labelled phospho-eIF2a antibody at a final concentration of 2 nM, and incubate for 90 minutes. Monitor the resulting fluorescence in an EnVison® Multilabel reader (PerkinElmer, Waltham, MA). Determine TR-FRET ratios and the resulting IC50 values using a 4-parameter nonlinear logistic equation as shown: Y=(A+((B−A)/(1+(C/x)AD)))) where, Y=% specific inhibition, A=Bottom of the curve, B=Top of the curve, C=absolute IC50 (concentration causing 50% inhibition), and D=hill slope.

[2] = tested on: eIF2α in HEK293-EGFP-eIF2α cells; assay: PERK Cellular Assay (HEK293-EGFP-eIF2α cells, tunicamycin-induced ER stress, TR-FRET); format: cell-based; conditions: tunicamycin 2 hours
Method: Stable cell lines were created in HEK293 cells using lentiviral particles harboring an expression vector for GFP-eIF2α. Cells were selected using puromycin and enriched using fluorescence activated cell sorting against GFP. HEK293-EGFP-eIF2α cells were plated at 5000 cells/well in 384-well assay plates and incubated overnight at 37° C., 5% CO2. Inhibitor compounds were added to the wells by Echo acoustic dispensing and incubated for 30 minutes at 37° C., 5% CO2 prior to induction of ER stress by addition of tunicamycin to […] for 2 hours. Cells were lysed and TR-FRET was measured in an EnVision plate reader (PerkinElmer). FRET ratio data was normalized to signal from lysates treated with DMSO vehicle control and plotted as percent inhibition against 10-point; 3-fold dilution series of inhibitors. IC50 values were calculated using 4-parameter logistical fitting in XLFit.

Sequence of Recombinant human EIF2AK3 (PERK) catalytic domain (amino acids 536-1116) (Q9NZJ5 536-1116): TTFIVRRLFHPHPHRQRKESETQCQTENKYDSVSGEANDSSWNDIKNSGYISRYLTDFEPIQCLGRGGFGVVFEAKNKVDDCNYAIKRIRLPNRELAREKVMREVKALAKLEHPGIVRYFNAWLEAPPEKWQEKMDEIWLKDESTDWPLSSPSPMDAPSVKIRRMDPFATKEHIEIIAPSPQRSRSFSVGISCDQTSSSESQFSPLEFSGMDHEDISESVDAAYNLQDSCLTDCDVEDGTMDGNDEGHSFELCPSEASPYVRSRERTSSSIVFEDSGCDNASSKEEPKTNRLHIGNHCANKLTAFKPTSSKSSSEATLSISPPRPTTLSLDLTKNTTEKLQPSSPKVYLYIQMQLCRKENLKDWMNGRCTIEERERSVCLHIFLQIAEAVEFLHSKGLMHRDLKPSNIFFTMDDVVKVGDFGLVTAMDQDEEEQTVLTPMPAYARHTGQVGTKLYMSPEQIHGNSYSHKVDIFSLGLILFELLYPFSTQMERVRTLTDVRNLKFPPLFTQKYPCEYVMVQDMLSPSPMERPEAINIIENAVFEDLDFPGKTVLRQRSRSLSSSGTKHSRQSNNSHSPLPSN

Row | Compound | IC50 [1] [nM] | IC50 [2] [nM] | IC50 ([2]; 2 h) [nM]
1 | Cc1cn2c(C)nc(-c3ccc(NC(=O)C(O)c4cccc(F)c4)cc3C)c2c(N)n1 (single isomer, unassigned) [Example 3, N-(4-(8-amino-3,6-dimethylimidazo[1,5-a]pyrazin-1-yl)-3-methylphenyl)-2-(3-fluorophenyl)-2-hydroxyacetamide] | 1 to 25 | 26 to 50 | 
2 | Cc1cn2c(C)nc(-c3ccc(NC(=O)C(O)c4cccc(F)c4)cc3C)c2c(N)n1 (single isomer, unassigned) [Example 4, N-(4-(8-amino-3,6-dimethylimidazo[1,5-a]pyrazin-1-yl)-3-methylphenyl)-2-(3-fluorophenyl)-2-hydroxyacetamide] | 51 to 100 | 251 to 500 | 
3 | Cc1cc(NC(=O)C(O)c2cccc(F)c2)ccc1-c1nc(C)n2ccnc(N)c12 (stereo not shown) [Example 1, N-(4-(8-amino-3-methylimidazo[1,5-a]pyrazin-1-yl)-3-methylphenyl)-2-(3-fluorophenyl)-2-hydroxyacetamide] | 1 to 25 | 26 to 50 | 
4 | Cc1cc(NC(=O)C(O)c2cccc(F)c2)ccc1-c1nc(C)n2ccnc(N)c12 (stereo not shown) [Example 2, N-(4-(8-amino-3-methylimidazo[1,5-a]pyrazin-1-yl)-3-methylphenyl)-2-(3-fluorophenyl)-2-hydroxyacetamide] | 26 to 50 | 251 to 500 | 
5 | [2H]C([2H])([2H])c1nc(-c2ccc(NC(=O)C(O)c3cccc(F)c3)cc2C)c2c(N)ncc(C)n12 (stereo not shown) [Example 11, N-(4-(8-amino-5-methyl-3-(trideuteriomethyl)imidazo[1,5-a]pyrazin-1-yl)-3-methylphenyl)-2-(3-fluorophenyl)-2-hydroxyacetamide] |  | 1 to 25 | 
6 | Cc1cn2c(C3CC(C)(O)C3)nc(-c3ccc(NC(=O)C(O)c4cccc(F)c4)cc3C)c2c(N)n1 (stereo not shown) [Example 24, N-(4-(8-amino-3-(3-hydroxy-3-methylcyclobutyl)-6-methylimidazo [1,5-a]pyrazin-1-yl)-3-methyl-phenyl)-2-(3-fluorophenyl)-2-hydroxyacetamide] |  | 101 to 250 | 
7 | Cc1cn2c(C3CC(C)(O)C3)nc(-c3ccc(NC(=O)C(O)c4cccc(F)c4)cc3C)c2c(N)n1 (stereo not shown) [Example 25, N-(4-(8-amino-3-(3-hydroxy-3-methylcyclobutyl)-6-methylimidazo [1,5-a]pyrazin-1-yl)-3-methyl-phenyl)-2-(3-fluorophenyl)-2-hydroxyacetamide] |  | 1000 to 2000 | 
8 | [2H]C([2H])([2H])c1nc(-c2ccc(NC(=O)C(O)c3cc(F)cc(F)c3)cc2C)c2c(N)ncc(Cl)n12 (stereo not shown) [Example 49, N-[4-[8-amino-5-chloro-3-(trideuteriomethyl)imidazo[1,5-a]pyrazin-1-yl]-3-methyl-phenyl]-2-(3,5-difluoro-phenyl)-2-hydroxy-acetamide] |  | 1 to 25 | 
9 | [2H]C([2H])([2H])c1nc(-c2ccc(NC(=O)C(O)c3cccc(C(F)(F)F)c3)cc2F)c2c(N)nc(C)cn12 (stereo not shown) [Example 97, N-[4-[8-amino-6-methyl-3-(trideuteriomethyl)imidazo[1,5-a]pyrazin-1-yl]-3-fluoro-phenyl]-2-hydroxy-2-[3-(trifluoromethyl)phenyl]acetamide] |  | 251 to 500 | 
10 | [2H]C([2H])([2H])c1nc(-c2ccc(NC(=O)C(O)c3cccc(C(F)(F)F)c3)cc2F)c2c(N)ncc(Cl)n12 (stereo not shown) [Example 101, N-[4-[8-amino-5-chloro-3-(trideuteriomethyl)imidazo[1,5-a]pyrazin-1-yl]-3-fluoro-phenyl]-2-hydroxy-2-[3-(trifluoromethyl)phenyl]acetamide] |  | 1 to 25 | 
11 | [2H]C([2H])([2H])c1nc(-c2ccc(NC(=O)C(O)c3cc(F)cc(F)c3)cc2F)c2c(N)ncc(Cl)n12 (stereo not shown) [Example 109, N-[4-[8-amino-5-chloro-3-(trideuteriomethyl)imidazo[1,5-a]pyrazin-1-yl]-3-fluoro-phenyl]-2-(3,5-difluoro-phenyl)-2-hydroxy-acetamide] |  | 1 to 25 | 
12 | Cc1cn2c(C)nc(-c3ccc(NC(=O)C(O)c4cccc(F)c4)c(F)c3)c2c(N)n1 (stereo not shown) [Example 118, N-(4-(8-amino-3,6-dimethyl-imidazo[1,5-a]pyrazin-1-yl)-2-fluorophenyl)-2-(3-fluorophenyl)-2-hydroxy-acetamide] |  | 4000 to 5000 | 
13 | Cc1cn2c(C)nc(-c3ccc(NC(=O)C(O)c4cccc(F)c4)c(F)c3)c2c(N)n1 (stereo not shown) [Example 119, N-(4-(8-amino-3,6-dimethyl-imidazo[1,5-a]pyrazin-1-yl)-2-fluorophenyl)-2-(3-fluorophenyl)-2-hydroxy-acetamide] |  | 26 to 50 | 
14 | [2H]C([2H])([2H])c1nc(-c2ccc(NC(=O)C(O)c3cccc(F)c3)c(F)c2)c2c(N)nc(C)cn12 (stereo not shown) [Example 120, N-[4-[8-amino-6-methyl-3-(trideuteriomethyl)imidazo[1,5-a]pyrazin-1-yl]-2-fluorophenyl]-2-(3-fluorophenyl)-2-hydroxy-acetamide] |  | 1000 to 2000 | 
15 | [2H]C([2H])([2H])c1nc(-c2ccc(NC(=O)C(O)c3cccc(F)c3)c(F)c2)c2c(N)nc(C)cn12 (stereo not shown) [Example 121, N-[4-[8-amino-6-methyl-3-(trideuteriomethyl)imidazo[1,5-a]pyrazin-1-yl]-2-fluorophenyl]-2-(3-fluorophenyl)-2-hydroxy-acetamide] |  | 51 to 100 | 
16 | [2H]C([2H])([2H])c1nc(-c2ccc(NC(=O)C(O)c3cccc(F)c3)nc2C)c2c(N)ncc(C)n12 (stereo not shown) [Example 172, N-[5-[8-amino-5-methyl-3-(trideuteriomethyl)imidazo[1,5-a]pyrazin-1-yl]-6-methyl-2-pyridyl]-2-(3-fluorophenyl)-2-hydroxy-acetamide] |  | 501 to 1000 | 

Continued, in another order:

Row | IC50 [1] [nM] | Compound | IC50 [2] [nM] | IC50 ([2]; 2 h) [nM]
17 | 1 to 25 | [2H]C([2H])([2H])c1nc(-c2ccc(NC(=O)C(O)c3cccc(F)c3)cc2C)c2c(N)nc(C)cn12 (stereo not shown) [Example 5, N-(4-(8-amino-6-methyl-3-(trideuteriomethyl)imidazo[1,5-a]pyrazin-1-yl)-3-methylphenyl)-2-(3-fluorophenyl)-2-hydroxyacetamide] |  | 1 to 25
18 | 1 to 25 | Cc1cc(NC(=O)C(O)c2cccc(F)c2)ccc1-c1nc(C)n2c(C)cnc(N)c12 (stereo not shown) [Example 8, N-(4-(8-amino-3,5-dimethylimidazo[1,5-a]pyrazin-1-yl)-3-methylphenyl)-2-(3-fluorophenyl)-2-hydroxyacetamide] | 26 to 50 | 
19 | 51 to 100 | Cc1cc(NC(=O)C(O)c2cccc(F)c2)ccc1-c1nc(C)n2c(C)cnc(N)c12 (stereo not shown) [Example 9, N-(4-(8-amino-3,5-dimethylimidazo[1,5-a]pyrazin-1-yl)-3-methylphenyl)-2-(3-fluorophenyl)-2-hydroxyacetamide] | 251 to 500 | 
20 | 1 to 25 | [2H]C([2H])([2H])c1nc(-c2ccc(NC(=O)C(O)c3cccc(F)c3)cc2C)c2c(N)ncc(C)n12 (stereo not shown) [Example 10, N-(4-(8-amino-5-methyl-3-(trideuteriomethyl)imidazo[1,5-a]pyrazin-1-yl)-3-methylphenyl)-2-(3-fluorophenyl)-2-hydroxyacetamide] |  | 1 to 25
21 | 1 to 25 | [2H]C([2H])([2H])c1nc(-c2ccc(NC(=O)C(O)c3cccc(C(F)(F)F)c3)cc2C)c2c(N)nc(C)cn12 (stereo not shown) [Example 14, N-[4-[8-amino-6-methyl-3-(trideuteriomethyl)imidazo[1,5-a]pyrazin-1-yl]-3-methyl-phenyl]-2-hydroxy-2-[3-(trifluoromethyl)phenyl]acetamide] | 26 to 50 | 
22 | 101 to 250 | [2H]C([2H])([2H])c1nc(-c2ccc(NC(=O)C(O)c3cccc(C(F)(F)F)c3)cc2C)c2c(N)nc(C)cn12 (stereo not shown) [Example 15, N-[4-[8-amino-6-methyl-3-(trideuteriomethyl)imidazo[1,5-a]pyrazin-1-yl]-3-methyl-phenyl]-2-hydroxy-2-[3-(trifluoromethyl)phenyl]acetamide] | 251 to 500 | 
23 | 1 to 25 | [2H]C([2H])([2H])c1nc(-c2ccc(NC(=O)C(O)c3cccc(Cl)c3)cc2C)c2c(N)ncc(C(F)(F)F)n12 (stereo not shown) [Example 40, N-[4-[8-amino-3-(trideuteriomethyl)-5-(trifluoromethyl)imidazo[1,5-a]pyrazin-1-yl]-3-methyl-phenyl]-2-(3-chlorophenyl)-2-hydroxy-acetamide] |  | 
24 | 1 to 25 | [2H]C([2H])([2H])c1nc(-c2ccc(NC(=O)C(O)c3cccc(Cl)c3)cc2F)c2c(N)ncc(Cl)n12 (stereo not shown) [Example 86, N-[4-[8-amino-5-chloro-3-(trideuteriomethyl)imidazo[1,5-a]pyrazin-1-yl]-3-fluoro-phenyl]-2-(3-chlorophenyl)-2-hydroxy-acetamide] |  | 
